Laboratory results: PMC6271245, “Discovery of Gramine Derivatives That Inhibit the Early Stage of EV71 Replication in Vitro” (Molecules, 2014)
Values after ≈ are worked out from the molar mass of the structure shown.

Legend:
EV71 [1] = experiment: Analysis of effective stage (treatment before, during or post infection) in RD cells; assay type: cell-based, Enterovirus 71; conditions: for titers of virus from infected cells, treatment before infection (preventive effect): RD cells pretreated 2 h with 10 µg/mL 4a, 20 µg/mL 4i, 40 µg/mL 4r or 4s, 48 h; for inhibition of virus-induced CPEs, post-infection treatment: up to 40 µg/mL
Protocol: To identify the step in the viral life cycle that is affected by these compounds, the assays were performed using three different treatment protocols. […] For all treatments, cell viability and progeny virus yields were measured after 48 h of infection.
(§1) Figure 2 Analysis of modes of action against EV71 of gramine derivatives. Analysis of effective stage. The RD cells were treated with tested compounds before, simultaneously or after EV71 (100 TCID50) inoculation: antiviral effects were detected by measuring (A) cell viability and (B) progeny virus yields (10 µg/mL 4a, 20 µg/mL 4i, 40 µg/mL 4r and 4s) 48 h post infection; (C) Analysis of the effects on EV71 adsorption. Mock- or 10 µg/mL 4a, 20 µg/mL 4i, 40 µg/mL 4r and 4s-treated EV71 (10^4 TCID50) was spinoculated onto RD cells and adsorbed for 2 h; intracellular virus was subjected to titration using the TCID50 method; (D) Effects on EV71 release from RD cells. RD cells infected with 100 TCID50 of EV71 were incubated with 10 µg/mL 4a, 20 µg/mL 4i, 40 µg/mL 4r and 4s for 12 h, of both cells and supernatants (intra- and extracellular), or of cells or supernatants harvested separately for virus titration. […] Values represent the mean ± standard deviation of three independent experiments.
(§2) Cell viability was assessed by an MTT assay, which functions based on the reduction of a MTT into formazan dye by active mitochondria. The cells were treated with 100 µL of MTT (1 mg/mL, Sigma, St. Louis, MO, USA) and incubated at 37 °C for 4 h. The reaction was blocked by DMSO and measured in a microplate reader (Bio-Tek Instruments, Winooski, VT, USA) at 492 nm. The untreated control was arbitrarily set as 100%.
(§3) The virus suspension, serially diluted 10-fold with DMEM containing 2% FBS, was inoculated to cells in a 96-well plate. After 1 h incubation at 37 °C in 5% CO2, unbinding virus was washed out and MM was added to the cells. After 2 days, the infected cells were monitored for cytopathic effects (CPEs). The virus titer was calculated by the Reed–Muench method.

EV71 [2] = experiment: Time-of-addition assay, progeny virus yield; assay type: cell-based, Enterovirus 71; conditions: compound present -1-10 h pi (similar for 0–10 h and 2–10 h); 10 µg/mL 4a, 20 µg/mL 4i, 40 µg/mL 4r or 4s; RD cells; 12 h pi
Protocol: To further understand the mechanisms of these gramine derivatives against EV71 propagation in cells, a time-of-addition experiment was performed. For this experiment, 10 µg/mL 4a, 20 µg/mL 4i, or 40 µg/mL 4r or 4s were added to infected cultures at different time periods (with 2 h intervals) and the reductions in virus yield relative to untreated cultures were determined at 12 h pi. […] With drugs treatments during other periods after EV71 infection, a gradual increase of viral yields was observed, reflecting the loss of the antiviral effects of the compounds. Results from this experiment indicate that these gramine derivatives may exert antiviral effects via the same action mechanism and mainly interfere with the early events of virus replication.
Figure 3 Time-of-addition assay. 10 µg/mL 4a, 20 µg/mL 4i, or 40 µg/mL 4r or 4s were added to RD cells at different time periods after EV71 infection. At 12 h pi, the progeny virus yield was determined (−1–0 h: viral infection period; 0–10 h: period for virus proliferation in the cells). Values are represented as the mean ± standard deviation.
Time-of-addition experiments were carried out, to estimate the point where the compound interfered with the replication cycle of EV71. The RD cells were infected with 100 TCID50 of EV71 and then 10 µg/mL 4a, 20 µg/mL 4i, or 40 µg/mL 4r or 4s was added at different time phases (−1–0 h, 0–10 h, 2–10 h, 4–10 h, 6–10 h, 8–10 h and −1–10 h pi, where −1–0 h is the viral infection period and 0–10 h is the period for virus proliferation in the cells). The cells and supernatants were harvested at […] and subjected to three freeze–thaw cycles, after which the viruses were titered by the Reed-Muench method.

[3] = Cytotoxicity on uninfected RD cells, MTT; assay type: cell-based; conditions: human, concentration reducing cell viability by 50%
Protocol: Human RD cells and Vero cells were maintained in Dulbecco’s modified Eagle’s medium (Gibco-Invitrogen, Carlsbad, CA, USA) supplemented with 10% fetal bovine serum (FBS; Gibco), 100 U/mL of penicillin and streptomycin, and 2 mM L-glutamine. Enterovirus 71 (EV71) was kindly provided by Zhanqiu Yang (Institute of Medical Virology, School of Medicine, Wuhan University, China) and propagated in RD cell lines. The virus titer was determined by the standard method of median tissue culture infective dose (TCID50) on RD cells.
The activity of compounds against EV71 was determined based on the inhibition of virus-induced cytopathogenicity effects (CPEs) in acutely infected cells. Vero and RD cells grown to 90% confluency in 96-well dishes were washed with phosphate buffered saline (PBS) and infected with 100 TCID50 of EV71 mixed with serial dilutions of tested compounds for 1.5 h at 37 °C. The inoculum was aspirated and cells were incubated with DMEM and test compounds at 37 °C, 5% CO2 for 48 h. The CPEs were observed microscopically and the viability of the cells was determined with a 3-(4,5-dimethylthiazol-2-yl)-2,5-diphenyltetrazolium bromide (MTT) assay. The concentrations required for the test compounds to achieve 50% protection from virus-induced cytopathogenicity (EC50) were determined. Adverse effects of these compounds on the host cells were also assessed by means of the MTT-method; by exposing uninfected cells to various concentrations of test compounds for 48 h at 37 °C, the viability of the cells was detected. The 50% cell cytotoxic concentrations (CC50) of compounds were calculated with the SPSS software (SPSS, Chicago, IL, USA). Selectivity indexes were calculated as the ratio of CC50: EC50.
as §2

EV71 [4] = experiment: Effect on EV71 adsorption, intracellular virus titration; assay type: cell-based, Enterovirus 71; conditions: EV71 (10^4 TCID50) treated with 10 µg/mL 4a, 20 µg/mL 4i, 40 µg/mL 4r or 4s, spinoculated onto RD cells, adsorbed 2 h
Protocol: Mock- or 10 µg/mL 4a, 20 µg/mL 4i, or 40 µg/mL 4r or 4s-treated EV71 (10^4 TCID50) were spinoculated onto cells and adsorbed for 2 h. The infected cells were harvested following freeze–thaw cycles and then subjected to virus titration.
as §1, §3

[5] = Enterovirus A, RD cells, 100 TCID50 EV71, 48 h, MTT, read-out: viability rate of infected cells, post-infection treatment

Row | Compound | viability at 20 µg/mL (EV71 [1]; Enterovirus A, 20 µg/mL, RD cells, 100 TCID50 EV71, 48 h, MTT, read-out: viability rate of infected cells, post-infection treatment) [%] | titers of virus from infected cells, treatment before infection (preventive effect) (EV71 [1]) | titers of the progeny virus, time of addition (EV71 [2]) | CC50 at 48 h [3] [µg/mL] | intracellular virus titer during virus attachment (EV71 [4]) | viability at 40 µg/mL (EV71 [1]; [5]) [%] | inhibition of virus-induced CPEs, post-infection treatment (EV71 [1]; RD cells) | viability at 10 µg/mL (EV71 [1]; Enterovirus A, 10 µg/mL, RD cells, 100 TCID50 EV71, 48 h, MTT, read-out: viability rate of infected cells, post-infection treatment) [%] | inhibition of CPEs, post-infection treatment (EV71 [1]; at 40 µg/mL and 20 µg/mL, due to cytotoxic effects on cells)
1 | Cn1cc(C(Nc2ccccn2)c2ccc(F)cc2)c2ccccc21 (centres unmarked) [Compound 4i] | 90.5 | nearly the same as those from untreated cells | strongly reduced | 65.2 ± 7.6 (≈ 197 µM) | no significant decrease in virus titer |  |  |  | 
2 | c1ccc(C(Nc2nc3ccccc3s2)c2c[nH]c3ccccc23)nc1 (centres unmarked) [Compound 4s] |  | nearly the same as those from untreated cells | strongly reduced | 137 ± 9.3 (≈ 383 µM) | no significant decrease in virus titer | 95.7 | almost completely inhibited virus-induced CPEs |  | 
3 | c1ccc(C(Nc2ccccn2)c2c[nH]c3ccccc23)cc1 (centres unmarked) [Compound 4a] |  | nearly the same as those from untreated cells | strongly reduced | 17.2 ± 1.6 (≈ 57.5 µM) | no significant decrease in virus titer |  |  | 85.8 | no inhibition of CPEs
4 | Cn1cc(C(Nc2nc3ccccc3s2)c2ccccc2F)c2ccccc21 (centres unmarked) [Compound 4r] |  | nearly the same as those from untreated cells | strongly reduced | 150 ± 16.2 (≈ 387 µM) | no significant decrease in virus titer | 84.6 | almost completely inhibited virus-induced CPEs |  | 
